In patent US20070049593A1 (priority 2004, published 2007) one finds IC50 data, which are given here for 21 compounds.

Molecules are shown by their SMILES. Counter-ions that a name gives are not always drawn. Where only a bound is given, the exact number is not on record here.

The term IC50 denotes the concentration that gives 50% inhibition.

In one assay the target is T1, HCV polymerase (Hepatitis C virus genotype 1b, UniProt P26663).
T1 construct: a region encoding NS5B (J Virol 1991 March, 65(3), 1105-13, 544 amino acids after deletion of 47 amino acids on the C-terminal); 6xHis (C); made in house; host or cells: Escherichia coli
T1 sequence (P26663 2420-2963): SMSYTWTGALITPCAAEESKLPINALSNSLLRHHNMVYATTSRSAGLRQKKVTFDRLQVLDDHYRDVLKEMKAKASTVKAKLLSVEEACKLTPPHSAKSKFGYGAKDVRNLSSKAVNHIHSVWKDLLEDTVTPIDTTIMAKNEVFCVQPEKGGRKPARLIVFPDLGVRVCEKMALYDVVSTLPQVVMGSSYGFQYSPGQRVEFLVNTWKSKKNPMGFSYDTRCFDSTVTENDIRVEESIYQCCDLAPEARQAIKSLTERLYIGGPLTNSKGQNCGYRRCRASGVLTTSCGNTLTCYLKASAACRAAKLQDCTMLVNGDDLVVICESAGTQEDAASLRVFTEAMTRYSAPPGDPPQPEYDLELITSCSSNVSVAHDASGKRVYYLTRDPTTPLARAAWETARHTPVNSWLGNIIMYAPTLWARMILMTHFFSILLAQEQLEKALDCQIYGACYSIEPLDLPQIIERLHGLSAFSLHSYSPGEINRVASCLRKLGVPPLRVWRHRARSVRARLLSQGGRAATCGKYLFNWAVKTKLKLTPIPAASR
The experiment in a line: biochemical. The arrangement: species or system HCV BK strain.
Conditions: not given
The text has this:
The evaluation of the HCV polymerase inhibitory activity of the compound of the present invention is explained in the following. This polymerase is an enzyme coded for by the non-structural protein region called NS5B on the genome RNA of HCV (EMBO J., 15:12-22, 1996).
Using, as a template, a cDNA clone corresponding to the full length genome RNA of HCV BK strain obtained from the blood of a patient with hepatitis C, a region encoding NS5B (J Virol 1991 March, 65(3), 1105-13, 544 amino acids after deletion of 47 amino acids on the C-terminal) was amplified by PCR. The objective gene was prepared by adding a 6 His tag {base pair encoding 6 continuous histidine (His)}to the 3′ end thereof and transformed to Escherichia coli. The Escherichia coli capable of producing the objective protein was cultured. The obtained cells were suspended in a buffer solution and crushed in a microfluidizer.
Using a synthetic primer designed based on the sequence of HCV genomic 3′ untranslated region, a DNA fragment (148 bp) containing polyU and 3′X sequence was entirely synthesized and cloned into plasmid pBluescript SK II(+) (Stratagene). The cDNA encoding full length NS5B, which was prepared in i) above, was digested with restriction enzyme KpnI to give a cDNA fragment containing the nucleotide sequence of from the restriction enzyme cleavage site to the termination codon. This cDNA fragment was inserted into the upstream of 3′ untranslated region of the DNA in pBluescript SK II(+) and ligated. The about 450 bp inserted DNA sequence was used as a template in the preparation of substrate RNA.
RNA was synthesized (37° C., 3 hr) by run-off method using this purified DNA as a template, a promoter of pBluescript SK II(+), MEGAscript RNA synthesis kit (Ambion) and T7 RNA polymerase. DNase I was added and the mixture was incubated for 1 hr. The template DNA was removed by decomposition to give a crude RNA product.
A test substance (compound of the present invention) and a reaction mixture (30 μl) having the following composition were reacted at 25° C. for 90 min.
10% Trichloroacetic acid at 4° C. and 1% sodium pyrophosphate solution (150 μl) were added to this reaction mixture to stop the reaction. The reaction mixture was left standing in ice for 15 min to insolubilize RNA. This RNA was trapped on a glass filter (Whatman GF/C and the like) upon filtration by suction. This filter was washed with a solution containing 1% trichloroacetic acid and 0.1% sodium pyrophosphate, washed with 90% ethanol and dried. A liquid scintillation cocktail (Packard) was added and the radioactivity of RNA synthesized by the enzyme reaction was measured on a liquid scintillation counter.
The HCV polymerase inhibitory activity (IC50) of the compound of the present invention was calculated from the values of radioactivity of the enzyme reaction with and without the test substance.
Reaction mixture: HCV polymerase (0.5 μg/ml) obtained in i), substrate RNA (5 μg/ml) obtained in ii), ATP (50 μM), GTP (50 μM), CTP ([…]), UTP (2 μM), [5,6-^3H]UTP (46 Ci/mmol (Amersham), 1 μCi) 20 mM Tris-HCl (pH 7.5), EDTA (1 mM), MgCl2 (5 mM), NaCl (50 mM), DTT (1 mM), BSA (0.01%)
Take `O=C(O)c1ccc2c(C3CCCCC3)c3n(c2c1)CCN(CC(=O)N1CCOCC1)c1cc(Cl)ccc1-3` [Example 1-60, 3-chloro-13-cyclohexyl-5-[2-(morpholin-4-yl)-2-oxoethyl]-6,7-dihydro-5H-benzo[5,6][1,4]diazepino[7,1-a]indole-10-carboxylic acid monohydrochloride]: the IC50 was under 0.1 µM.

In turn, `O=C(O)c1ccc2c(C3CCCCC3)c3n(c2c1)CCN(CCCC(=O)N1CCOCC1)c1ccccc1-3` [Example 1-61, 13-cyclohexyl-5-[4-(morpholin-4-yl)-4-oxobutyl]-6,7-dihydro-5H-benzo[5,6][1,4]diazepino[7,1-a]indole-10-carboxylic acid monohydrochloride] came in with an IC50 of under 0.1 µM.

On to `CCN1CCN(C(=O)CCCN2CCn3c(c(C4CCCCC4)c4ccc(C(=O)O)cc43)-c3ccccc32)CC1` [Example 1-62, 13-cyclohexyl-5-[4-(4-ethylpiperazin-1-yl)-4-oxobutyl]-6,7-dihydro-5H-benzo[5,6][1,4]diazepino[7,1-a]indole-10-carboxylic acid dihydrochloride], for which the IC50 is under 0.1 µM.

`Cc1ccc2c(c1)N(CC(=O)N1CCOCC1)CCn1c-2c(C2CCCCC2)c2ccc(C(=O)O)cc21` [Example 1-63, 13-cyclohexyl-3-methyl-5-[2-(morpholin-4-yl)-2-oxoethyl]-6,7-dihydro-5H-benzo[5,6][1,4]diazepino[7,1-a]indole-10-carboxylic acid monohydrochloride] registered an IC50 of under 0.1 µM.

As for `COc1ccc2c(c1)N(CC(=O)N1CCOCC1)CCn1c-2c(C2CCCCC2)c2ccc(C(=O)O)cc21` [Example 1-64, 13-cyclohexyl-3-methoxy-5-[2-(morpholin-4-yl)-2-oxoethyl]-6,7-dihydro-5H-benzo[5,6][1,4]diazepino[7,1-a]indole-10-carboxylic acid monohydrochloride], the IC50 was under 0.1 µM.

For `COc1ccc2c(c1)N(CC(=O)N1CCCCC1)CCn1c-2c(C2CCCCC2)c2ccc(C(=O)O)cc21` [Example 1-65, 13-cyclohexyl-3-methoxy-5-[2-oxo-2-(piperidin-1-yl)ethyl]-6,7-dihydro-5H-benzo[5,6][1,4]diazepino[7,1-a]indole-10-carboxylic acid monohydrochloride], the IC50 is under 0.1 µM.

`CCN1CCN(C(=O)CN2CCn3c(c(C4CCCCC4)c4ccc(C(=O)O)cc43)-c3ccc(OC)cc32)CC1` [Example 1-66, 13-cyclohexyl-5-[2-(4-ethylpiperazin-1-yl)-2-oxoethyl]-3-methoxy-6,7-dihydro-5H-benzo[5,6][1,4]diazepino[7,1-a]indole-10-carboxylic acid dihydrochloride] displayed an IC50 of under 0.1 µM.

Regarding `COc1ccc2c(c1)N(CCN1CCOCC1)CCn1c-2c(C2CCCCC2)c2ccc(C(=O)O)cc21` [Example 1-67, 13-cyclohexyl-3-methoxy-5-[2-(morpholin-4-yl)ethyl]-6,7-dihydro-5H-benzo[5,6][1,4]diazepino[7,1-a]indole-10-carboxylic acid dihydrochloride], the IC50 was under 0.1 µM.

For the compound `Cc1ccc2c(c1)N(CCN1CCOCC1)CCn1c-2c(C2CCCCC2)c2ccc(C(=O)O)cc21` [Example 1-68, 13-cyclohexyl-3-methyl-5-[2-(morpholin-4-yl)ethyl]-6,7-dihydro-5H-benzo[5,6][1,4]diazepino[7,1-a]indole-10-carboxylic acid dihydrochloride], the IC50 was under 0.1 µM.

`O=C(O)c1ccc2c(C3CCCCC3)c3n(c2c1)CCN(CCN1CCCOCC1)c1ccccc1-3` [Example 1-69, 13-cyclohexyl-5-[2-(1,4-oxazepan-4-yl)ethyl]-6,7-dihydro-5H-benzo[5,6][1,4]diazepino[7,1-a]indole-10-carboxylic acid dihydrochloride]: the IC50 is under 0.1 µM.

`CS(=O)(=O)N1CCN(C(=O)CN2CCn3c(c(C4CCCCC4)c4ccc(C(=O)O)cc43)-c3ccccc32)CC1` [Example 1-70, 13-cyclohexyl-5-[2-(4-methanesulfonylpiperazin-1-yl)-2-oxoethyl]-6,7-dihydro-5H-benzo[5,6][1,4]diazepino[7,1-a]indole-10-carboxylic acid monohydrochloride] returned an IC50 of under 0.1 µM.

`CCC1CCN(C(=O)CN2CCn3c(c(C4CCCCC4)c4ccc(C(=O)O)cc43)-c3ccccc32)CC1` [Example 1-71, 13-cyclohexyl-5-[2-(4-ethylpiperidin-1-yl)-2-oxoethyl]-6,7-dihydro-5H-benzo[5,6][1,4]diazepino[7,1-a]indole-10-carboxylic acid monohydrochloride] had an IC50 of under 0.1 µM.

`CC1CCN(C(=O)CN2CCn3c(c(C4CCCCC4)c4ccc(C(=O)O)cc43)-c3ccccc32)CC1` [Example 1-72, 13-cyclohexyl-5-[2-(4-methylpiperidin-1-yl)-2-oxoethyl]-6,7-dihydro-5H-benzo[5,6][1,4]diazepino[7,1-a]indole-10-carboxylic acid monohydrochloride] registered an IC50 of under 0.1 µM.

Take `CCC1CCN(CCN2CCn3c(c(C4CCCCC4)c4ccc(C(=O)O)cc43)-c3ccccc32)CC1` [Example 1-73, 13-cyclohexyl-5-[2-(4-ethylpiperidin-1-yl)ethyl]-6,7-dihydro-5H-benzo[5,6][1,4]diazepino[7,1-a]indole-10-carboxylic acid dihydrochloride]: the IC50 was under 0.1 µM.

`COc1ccc2c(c1)N(CCN1CCCCC1)CCn1c-2c(C2CCCCC2)c2ccc(C(=O)O)cc21` [Example 1-74, 13-cyclohexyl-3-methoxy-5-[2-(piperidin-1-yl)ethyl]-6,7-dihydro-5H-benzo[5,6][1,4]diazepino[7,1-a]indole-10-carboxylic acid dihydrochloride] had a half-maximal inhibitory concentration (IC50) of under 0.1 µM.

Regarding `CC1CCN(CCN2CCn3c(c(C4CCCCC4)c4ccc(C(=O)O)cc43)-c3ccccc32)CC1` [Example 1-75, 13-cyclohexyl-5-[2-(4-methylpiperidin-1-yl)ethyl]-6,7-dihydro-5H-benzo[5,6][1,4]diazepino[7,1-a]indole-10-carboxylic acid dihydrochloride], the IC50 is under 0.1 µM.

In turn, `CCN1CCN(C(=O)CN2CCn3c(c(C4CCCCC4)c4ccc(C(=O)O)cc43)-c3ccc(Cl)cc32)CC1` [Example 1-76, 3-chloro-13-cyclohexyl-5-[2-(4-ethylpiperazin-1-yl)-2-oxoethyl]-6,7-dihydro-5H-benzo[5,6][1,4]diazepino[7,1-a]indole-10-carboxylic acid dihydrochloride] had an IC50 of under 0.1 µM.

In turn, `O=C(O)c1ccc2c(C3CCCCC3)c3n(c2c1)CCN(CC(=O)N1CCCCC1)c1cc(Cl)ccc1-3` [Example 1-77, 3-chloro-13-cyclohexyl-5-[2-oxo-2-(piperidin-1-yl)ethyl]-6,7-dihydro-5H-benzo[5,6][1,4]diazepino[7,1-a]indole-10-carboxylic acid monohydrochloride] gave an IC50 of under 0.1 µM.

As to `O=C(O)c1ccc2c(C3CCCCC3)c3n(c2c1)CCN(CC(=O)N1CCCCCC1)c1ccccc1-3` [Example 1-78, 5-[2-(azepan-1-yl)-2-oxoethyl]-13-cyclohexyl-6,7-dihydro-5H-benzo[5,6][1,4]diazepino[7,1-a]indole-10-carboxylic acid monohydrochloride], the IC50 is under 0.1 µM.

Compound `O=C(O)c1ccc2c(C3CCCCC3)c3n(c2c1)CCN(CCCCN1CCOCC1)c1ccccc1-3` [Example 1-80, 13-cyclohexyl-5-[4-(morpholin-4-yl)butyl]-6,7-dihydro-5H-benzo[5,6][1,4]diazepino[7,1-a]indole-10-carboxylic acid dihydrochloride] displayed a 50% inhibitory concentration (IC50) of under 0.1 µM.

Still in this assay, the particulars now being: 25° C., 90 min; [5,6-3H]UTP incorporation into RNA; read-out: HCV polymerase inhibitory activity IC50.
For `O=C(O)c1ccc2c(C3CCCCC3)c3n(c2c1)CCN(CCN1CCOCC1)c1cc(Cl)ccc1-3` [Example 1-79, 3-chloro-13-cyclohexyl-5-[2-(morpholin-4-yl)ethyl]-6,7-dihydro-5H-benzo[5,6][1,4]diazepino[7,1-a]indole-10-carboxylic acid dihydrochloride], the IC50 was under 0.1 µM.
